We go through 13 molecules from patent US8822517B2, “Arylosulfonamides for the treatment of CNS diseases” (Adamed SP. Z O.O., priority 2010, dated 2014).

For assay [1], the target named is T1, serotonine transporter (SERT) receptor (Homo sapiens, UniProt P31645).
T1 construct: expressed in transfected cells; host or cells: CHO cells
In words: Binding assay SERT (h), [3H]imipramine, CHO cells. The settings on record: read-out: SERT [%]. The protocol:
(§1) The specific ligand binding to the receptors is defined as the difference between the total binding and the nonspecific binding determined in the presence of an excess of so unlabelled ligand.
(§2) The specific Ligand binding to the receptor is defined as the difference between total and non-specific binding determined in the presence of an excess of unlabelled ligand. The compounds were tested at a concentration of 1×10^−6 M, and scintillation counting was the method of detection of ligand binding.

The next assay deals with adrenergic α1 receptor. Briefly: Binding assay α1 (non-selective), [3H]prazosin, rat cerebral cortex. Particulars: percent inhibition of control specific binding; compounds tested at 1×10^−6 M. The protocol:
as §1, §2

The target of another assay is dopaminergic D3 receptor (Homo sapiens, UniProt P35462). In words: Binding assay D3 (h), [3H]methyl-spiperone, CHO cells. On the set-up: expressed in transfected cells; host or cells: CHO cells. The settings on record: read-out: D3 [%]. The protocol: as §1, §2
Assay [2] concerns the target serotoninergic 5-HT6 receptor (Homo sapiens, UniProt P50406). In words: Binding assay 5-HT6 (h), [3H]LSD, CHO cells. On the set-up: expressed in transfected cells; host or cells: CHO cells. Particulars: read-out: 5-HT6. The protocol:
as §1, §2

For assay [3], the target named is serotoninergic 5-HT7 receptor (Homo sapiens, UniProt P34969). In words: Binding assay 5-HT7 (h), [3H]LSD, CHO cells. More on the design: expressed in transfected cells; host or cells: CHO cells. Particulars: read-out: 5-HT7. The protocol:
as §1, §2

A further assay deals with dopaminergic D2 receptor (Homo sapiens, UniProt P14416). In words: Binding assay D2S (h), [3H]methyl-spiperone, HEK-293 cells. On the set-up: expressed in transfected cells; host or cells: HEK-293 cells. Particulars: read-out: D2 [%]. The protocol:
as §1, §2

The target in assay [4] is T2, serotoninergic 5-HT1A receptor (Homo sapiens, UniProt P08908).
T2 sequence (P08908 1-422): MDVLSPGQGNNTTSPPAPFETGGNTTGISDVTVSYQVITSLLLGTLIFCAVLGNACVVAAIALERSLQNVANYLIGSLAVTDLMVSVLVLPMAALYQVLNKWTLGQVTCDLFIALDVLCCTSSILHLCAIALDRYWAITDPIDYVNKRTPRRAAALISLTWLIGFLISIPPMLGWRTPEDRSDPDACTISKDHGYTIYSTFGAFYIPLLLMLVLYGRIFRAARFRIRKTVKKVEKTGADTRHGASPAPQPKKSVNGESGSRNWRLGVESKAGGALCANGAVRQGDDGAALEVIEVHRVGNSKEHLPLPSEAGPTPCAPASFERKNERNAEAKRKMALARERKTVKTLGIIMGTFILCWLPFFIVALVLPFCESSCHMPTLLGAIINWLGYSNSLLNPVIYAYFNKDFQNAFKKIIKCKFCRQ
In words: Binding assay 5-HT1A (h), [3H]8-OH-DPAT, HEK-293 cells. On the set-up: expressed in transfected cells; host or cells: HEK-293 cells. Particulars: read-out: 5-HT1A. The protocol:
as §1, §2

Assay [5] has as its target serotoninergic 5-HT2A receptor (Homo sapiens, UniProt P28223). In words: Binding assay 5-HT2A (h), [3H]ketanserin, HEK-293 cells. On the set-up: expressed in transfected cells; host or cells: HEK-293 cells. Particulars: read-out: 5-HT2A. The protocol:
as §1, §2

serotoninergic 5-HT2A receptor, sequence (P28223 whole entry): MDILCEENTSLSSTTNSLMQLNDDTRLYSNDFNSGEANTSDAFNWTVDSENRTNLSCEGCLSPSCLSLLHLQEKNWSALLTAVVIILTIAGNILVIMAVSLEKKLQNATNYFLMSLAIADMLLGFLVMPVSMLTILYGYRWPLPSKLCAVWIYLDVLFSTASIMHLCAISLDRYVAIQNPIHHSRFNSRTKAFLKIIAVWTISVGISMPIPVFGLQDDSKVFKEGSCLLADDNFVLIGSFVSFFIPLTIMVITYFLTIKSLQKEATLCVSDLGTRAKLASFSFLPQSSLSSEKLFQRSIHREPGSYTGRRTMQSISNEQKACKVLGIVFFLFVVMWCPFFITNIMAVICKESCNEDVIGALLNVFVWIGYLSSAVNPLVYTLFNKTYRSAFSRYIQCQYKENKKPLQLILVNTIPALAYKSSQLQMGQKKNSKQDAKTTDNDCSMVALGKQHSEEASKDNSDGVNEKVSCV
dopaminergic D3 receptor, sequence (P35462 whole entry): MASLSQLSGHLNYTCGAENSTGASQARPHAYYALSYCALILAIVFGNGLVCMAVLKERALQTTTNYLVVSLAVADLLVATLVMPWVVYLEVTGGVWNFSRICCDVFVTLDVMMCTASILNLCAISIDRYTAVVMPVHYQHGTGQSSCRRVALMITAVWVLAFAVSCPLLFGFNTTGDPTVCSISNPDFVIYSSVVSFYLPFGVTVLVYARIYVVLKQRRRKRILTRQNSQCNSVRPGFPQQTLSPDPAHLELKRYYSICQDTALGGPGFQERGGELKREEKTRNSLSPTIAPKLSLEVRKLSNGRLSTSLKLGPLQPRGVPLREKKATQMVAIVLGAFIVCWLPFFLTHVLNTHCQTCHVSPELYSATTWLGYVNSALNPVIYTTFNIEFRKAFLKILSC
dopaminergic D2 receptor, sequence (P14416 1-414 isoform P14416-2): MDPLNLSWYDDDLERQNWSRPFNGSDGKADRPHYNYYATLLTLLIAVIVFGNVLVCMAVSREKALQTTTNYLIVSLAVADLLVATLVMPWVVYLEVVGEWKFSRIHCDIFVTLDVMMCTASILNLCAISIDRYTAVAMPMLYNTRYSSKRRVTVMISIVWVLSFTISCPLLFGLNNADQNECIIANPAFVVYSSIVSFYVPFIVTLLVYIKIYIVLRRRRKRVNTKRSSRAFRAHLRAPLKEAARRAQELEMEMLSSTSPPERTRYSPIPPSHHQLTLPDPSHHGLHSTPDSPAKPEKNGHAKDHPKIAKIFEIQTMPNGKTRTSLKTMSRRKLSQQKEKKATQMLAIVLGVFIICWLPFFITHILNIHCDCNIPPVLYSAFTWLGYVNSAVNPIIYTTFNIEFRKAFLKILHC
serotoninergic 5-HT6 receptor, sequence (P50406 whole entry): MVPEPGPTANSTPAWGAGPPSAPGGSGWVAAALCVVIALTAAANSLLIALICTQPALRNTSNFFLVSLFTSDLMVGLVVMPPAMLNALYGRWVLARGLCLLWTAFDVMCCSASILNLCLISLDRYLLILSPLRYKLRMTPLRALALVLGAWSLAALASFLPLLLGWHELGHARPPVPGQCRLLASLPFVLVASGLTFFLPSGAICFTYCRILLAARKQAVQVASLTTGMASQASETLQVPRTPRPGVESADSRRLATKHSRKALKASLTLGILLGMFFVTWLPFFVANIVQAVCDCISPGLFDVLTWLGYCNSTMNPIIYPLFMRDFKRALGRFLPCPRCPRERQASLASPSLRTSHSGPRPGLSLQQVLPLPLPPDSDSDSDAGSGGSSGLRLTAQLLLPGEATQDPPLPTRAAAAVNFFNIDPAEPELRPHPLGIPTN
T1 sequence (P31645 whole entry): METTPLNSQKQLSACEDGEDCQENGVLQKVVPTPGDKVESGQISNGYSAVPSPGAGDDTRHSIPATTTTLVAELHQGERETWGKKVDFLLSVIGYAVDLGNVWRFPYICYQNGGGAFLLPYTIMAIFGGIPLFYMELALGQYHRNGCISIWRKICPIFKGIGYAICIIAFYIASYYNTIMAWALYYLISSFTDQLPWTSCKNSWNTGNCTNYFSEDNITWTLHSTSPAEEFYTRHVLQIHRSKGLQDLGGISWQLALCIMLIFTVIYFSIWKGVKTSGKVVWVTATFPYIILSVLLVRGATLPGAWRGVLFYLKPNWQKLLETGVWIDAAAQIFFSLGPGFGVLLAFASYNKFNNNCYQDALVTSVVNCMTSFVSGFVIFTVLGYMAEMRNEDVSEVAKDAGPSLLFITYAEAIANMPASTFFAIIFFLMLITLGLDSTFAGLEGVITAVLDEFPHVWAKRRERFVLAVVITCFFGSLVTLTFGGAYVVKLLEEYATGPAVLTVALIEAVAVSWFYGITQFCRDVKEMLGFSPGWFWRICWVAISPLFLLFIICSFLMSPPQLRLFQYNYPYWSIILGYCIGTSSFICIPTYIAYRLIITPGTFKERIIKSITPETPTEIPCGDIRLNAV
serotoninergic 5-HT7 receptor, sequence (P34969 whole entry): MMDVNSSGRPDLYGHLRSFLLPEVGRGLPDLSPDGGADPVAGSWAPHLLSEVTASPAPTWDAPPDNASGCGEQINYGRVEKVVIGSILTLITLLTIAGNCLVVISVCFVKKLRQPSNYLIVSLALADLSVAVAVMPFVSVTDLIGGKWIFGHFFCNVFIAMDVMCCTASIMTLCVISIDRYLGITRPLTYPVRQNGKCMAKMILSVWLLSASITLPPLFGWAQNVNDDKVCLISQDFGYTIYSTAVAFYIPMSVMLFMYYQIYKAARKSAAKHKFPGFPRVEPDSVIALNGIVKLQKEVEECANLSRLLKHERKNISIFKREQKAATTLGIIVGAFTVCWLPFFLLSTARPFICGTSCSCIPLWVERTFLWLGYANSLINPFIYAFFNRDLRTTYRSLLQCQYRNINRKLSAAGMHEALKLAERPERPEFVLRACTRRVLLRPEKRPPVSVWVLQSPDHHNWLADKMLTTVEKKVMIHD

As for `O=S(=O)(NCCCCN1CCN(c2noc3ccccc23)CC1)c1cccc(C(F)(F)F)c1` [Compound 91, N-[4-[4-(1,2-Benzoxazol-3-yl)piperazin-1-yl]butyl]-3-(trifluoromethyl)benzenesulphonamide], the inhibition at 1 µM in assay [1] amounted to 2%; at dopaminergic D3 receptor, 70%; in assay [2] it was 83%; in assay [3], 99%; on dopaminergic D2 receptor, 92%; in assay [4], 40%. The inhibition at 1 µM in assay [5] was determined as 95%. The “α1 [%]” value in the assay on adrenergic α1 receptor is on record as 99%.
Consider `O=S(=O)(NCCCCN1CCN(c2noc3ccccc23)CC1)c1ccc(Cl)c(Cl)c1` [Compound 93, N-[4-[4-(1,2-Benzoxazol-3-yl)piperazin-1-yl]butyl]-3,4-dichlorobenzenesulphonamide], for which the inhibition at 1 µM in assay [1] turned out to be 0%; on dopaminergic D3 receptor it was 86%; in assay [2], 92%; in assay [3], 88%; on dopaminergic D2 receptor, 98%; in assay [4], 48%. In addition, the inhibition at 1 µM in assay [5] came out at 90%. In the assay with adrenergic α1 receptor, the “α1 [%]” value is recorded as 97%.
In the case of `O=S(=O)(NCCCCN1CCC(c2noc3cc(F)ccc23)CC1)c1cccc(Cl)c1` [Compound 105, 3-Chloro-N-[4-[4-(6-fluoro-1,2-benzoxazol-3-yl)piperidin-1-yl]butyl]benzenesulphonamide], the inhibition at 1 µM in assay [1] was -11%; on dopaminergic D3 receptor it was 88%; in assay [2], 87%; in assay [3], 85%; at dopaminergic D2 receptor, 107%; in assay [4], 41%. Besides, in assay [5], the inhibition at 1 µM is 91%. Further, the “α1 [%]” value in the assay with adrenergic α1 receptor is on record as 96%.
Regarding `O=S(=O)(NCCCCN1CCC(c2noc3cc(F)ccc23)CC1)c1cccc(F)c1` [Compound 107, 3-Fluoro-N-[4-[4-(6-fluoro-1,2-benzoxazol-3-yl)piperidin-1-yl]butyl]benzenesulphonamide], the inhibition at 1 µM in assay [1] was -12%; at dopaminergic D3 receptor it was 97%; in assay [2], 75%; in assay [3], 91%; on dopaminergic D2 receptor, 104%; in assay [4], 38%. Moreover, the inhibition at 1 µM in assay [5] turned out to be 95%. Further, the “α1 [%]” value in the assay with adrenergic α1 receptor is recorded as 100%.
For the molecule `O=S(=O)(NCCCN1CCC(c2noc3cc(F)ccc23)CC1)c1cccc(F)c1` [Compound 108, 3-Fluoro-N-[3-[4-(6-fluoro-1,2-benzoxazol-3-yl)piperidin-1-yl]propyl]benzenesulphonamide], the inhibition at 1 µM in assay [1] is -9%; at dopaminergic D3 receptor it was 98%; in assay [2], 86%; in assay [3], 90%; on dopaminergic D2 receptor, 106%; in assay [4] it was 48%. In addition, in assay [5], the inhibition at 1 µM amounted to 88%. Further, the “α1 [%]” value in the assay with adrenergic α1 receptor amounted to 100%.
In the case of `O=S(=O)(NCCCCN1CCC(c2noc3cc(F)ccc23)CC1)c1cccc(Br)c1` [Compound 109, 3-Bromo-N-[4-[4-(6-fluoro-1,2-benzoxazol-3-yl)piperidin-1-yl]butyl]benzenesulphonamide], the inhibition at 1 µM in assay [1] was 15%; at dopaminergic D3 receptor, 99%; in assay [2], 84%; in assay [3], 92%; at dopaminergic D2 receptor, 100%; in assay [4], 86%. In addition, in assay [5], the inhibition at 1 µM came out at 93%. Besides, the “α1 [%]” value with adrenergic α1 receptor amounted to 101%.
In the case of `O=S(=O)(NCCCCN1CCC(c2noc3cc(F)ccc23)CC1)c1ccc(-c2ccccc2)cc1` [Compound 111, N-[4-[4-(6-Fluoro-1,2-benzoxazol-3-yl)piperidin-1-yl]butyl]-4-phenylbenzenesulphonamide], the inhibition at 1 µM was -14% in assay [1]; 93% on dopaminergic D3 receptor; 95% in assay [2]; 93% in assay [3]; 108% at dopaminergic D2 receptor; 39% in assay [4]. Further, in assay [5], the inhibition at 1 µM worked out at 96%. Besides, the “α1 [%]” value in the assay on adrenergic α1 receptor worked out at 100%.
Regarding `O=S(=O)(NCCCN1CCC(c2noc3cc(F)ccc23)CC1)c1ccc(-c2ccccc2)cc1` [Compound 112, N-[3-[4-(6-Fluoro-1,2-benzoxazol-3-yl)piperidin-1-yl]propyl]-4-phenylbenzenesulphonamide], the inhibition at 1 µM in assay [1] is -17%; on dopaminergic D3 receptor, 98%; in assay [2], 94%; in assay [3], 95%; on dopaminergic D2 receptor, 103%; in assay [4], 20%. In addition, the inhibition at 1 µM in assay [5] was 93%. Besides, the “α1 [%]” value with adrenergic α1 receptor was determined as 99%.
On to `Cc1[nH]c2ccc(Cl)cc2c1C1=CCN(CCCCNS(=O)(=O)c2cccc(Cl)c2)CC1` [Compound 137, N-[4-[4-(5-Chloro-2-methyl-1H-indol-3-yl)-3,6-dihydro-2H-pyridin-1-yl]butyl]-3-chlorobenzenesulphonamide], for which the inhibition at 1 µM in assay [1] came to 38%; on dopaminergic D3 receptor, 92%; in assay [2] it was 91%; in assay [3], 33%; on dopaminergic D2 receptor, 65%; in assay [4] it was 39%. Further, the inhibition at 1 µM in assay [5] was 47%. Moreover, in the assay on adrenergic α1 receptor, the “α1 [%]” value turned out to be 10%.
On to `Cc1[nH]c2ccc(Cl)cc2c1C1=CCN(CCCNS(=O)(=O)c2cccc(Cl)c2)CC1` [Compound 138, N-[3-[4-(5-Chloro-2-methyl-1H-indol-3-yl)-3,6-dihydro-2H-pyridin-1-yl]propyl]-3-chlorobenzenesulphonamide], for which the inhibition at 1 µM is 25% in assay [1]; 57% at dopaminergic D3 receptor; 95% in assay [2]; 52% in assay [3]; 40% on dopaminergic D2 receptor; 54% in assay [4]. Also, in assay [5], the inhibition at 1 µM was 62%. Further, in the assay with adrenergic α1 receptor, the “α1 [%]” value is 8%.
Take `Cc1[nH]c2ccc(Cl)cc2c1C1=CCN(CCCCNS(=O)(=O)c2cccc(F)c2)CC1` [Compound 139, N-[4-[4-(5-Chloro-2-methyl-1H-indol-3-yl)-3,6-dihydro-2H-pyridin-1-yl]butyl]-3-fluorobenzenesulphonamide]: the inhibition at 1 µM was 17% in assay [1]; 92% on dopaminergic D3 receptor; 96% in assay [2]; 56% in assay [3]; 52% on dopaminergic D2 receptor; 57% in assay [4]. In assay [5], the inhibition at 1 µM was 41%. Besides, the “α1 [%]” value in the assay on adrenergic α1 receptor was 20%.
In the case of `Cc1[nH]c2ccc(Cl)cc2c1C1=CCN(CCCNS(=O)(=O)c2cccc(F)c2)CC1` [Compound 140, N-[3-[4-(5-Chloro-2-methyl-1H-indol-3-yl)-3,6-dihydro-2H-pyridin-1-yl]propyl]-3-fluorobenzenesulphonamide], the inhibition at 1 µM stood at 14% in assay [1]; 73% at dopaminergic D3 receptor; 92% in assay [2]; 81% in assay [3]; 47% at dopaminergic D2 receptor; 56% in assay [4]. Moreover, in assay [5], the inhibition at 1 µM came out at 68%. In addition, the “α1 [%]” value in the assay with adrenergic α1 receptor stood at 17%.
With `Cc1c(S(=O)(=O)NCCCCN2CCN(c3cccc4[nH]c(=O)[nH]c34)CC2)sc2ccc(Cl)cc12` [Compound 165, 5-Chloro-3-methyl-N-[4-[4-(2-oxo-1,3-dihydrobenzimidazol-4-yl)piperazin-1-yl]butyl]-1-benzothiophene-2-sulfonamide], the inhibition at 1 µM was 4% in assay [1]; 89% at dopaminergic D3 receptor; -16% in assay [2]; 86% in assay [3]; 64% at dopaminergic D2 receptor; 70% in assay [4]. In addition, the inhibition at 1 µM in assay [5] came to 37%. Further, in the assay with adrenergic α1 receptor, the “α1 [%]” value is 47%.
